# In article PMC5927452, “Gadoxetic acid–enhanced magnetic resonance imaging to predict paritaprevir-induced hyperbilirubinemia during treatment of hepatitis C” (PLoS ONE, 2018):
# Legend:
# [1] = Plasma paritaprevir concentration 7 d after start of OBV/PTV/r treatment (LC-MS/MS); format: in vivo, human; conditions: OBV/PTV/r 25/150/100 mg orally once daily; for Log10 Ctrough: fasting steady-state plasma trough, day 7, LC-MS/MS, mean ± SD; for AUC (AUC0-6 h): plasma, day 7, 0-6 h after dosing with breakfast, trapezoidal rule
# Description: This was a single-center, exploratory, prospective study. The study was approved by both the ethical review board of Juntendo University Faculty of Medicine (Jundai-Irin No-2016135) and the Ethics Committee for Human Genome/Gene Analysis Research at Kanazawa University Graduate School of Medical Sciences (No. 2016–004, serial No. 432) and was carried out in accordance with the 1964 Declaration of Helsinki and its later amendments. The study was also registered with UMIN clinical trials as UMIN000022587. Written informed consent was obtained from all patients before enrollment. The study enrolled adult patients with HCV genotype 1b chronic hepatitis or compensated liver cirrhosis using OBV/PTV/r (VIEKIRAX®; AbbVie, Inc., North Chicago, Illinois, USA) at Juntendo University Nerima Hospital. Analysis of resistance-associated variations of the NS5A Y93H substitutions in the baseline sequence was performed in a commercial laboratory (SRL, Inc., Tokyo, Japan), and the patients with the mutant type of NS5A Y93H were excluded. Patients with renal dysfunction (estimated glomerular filtration rate < 40 ml/min/1.73 m^2) were excluded. A precaution in OBV/PTV/r treatment is coadministration of statin medications. Patients taking simvastatin and atorvastatin were excluded; no other patients were taking any other type of statin. Consequently, this study involved 27 consecutive Japanese patients (8 males and 19 females), with ages ranging from 30 to 83 years, treated between June 2016 and July 2017. Twenty patients with chronic hepatitis and seven patients with liver cirrhosis were included. All patients were treated with OBV/PTV/r, at a dose of 25/150/100 mg, administered orally once daily.
# Fasting steady-state plasma trough concentrations (Ctrough) of paritaprevir were determined from blood samples obtained 7 d after the start of treatment. The patients were given the same breakfast of 338 kcal, with 15% of calories from protein, 60% from fat, and 25% from carbohydrates. After the meal, the patients took the drugs orally. Paritaprevir concentrations at 2, 4, and 6 h after dosing were determined. Blood samples were centrifuged within 30 min at 1,500 rpm for 10 min at 4°C, and plasma concentrations of paritaprevir were determined using liquid chromatography–tandem mass spectrometry, as described. The area under the plasma concentration curve from 0 to 6 h (AUC0–6 h) of paritaprevir after dosing was calculated using the trapezoidal rule.
# [2] = regimen of paritaprevir/ritonavir, ombitasvir, and dasabuvir with or without ribavirin; mainly indirect bilirubin, without elevations in liver enzymes; cited from earlier work
# Description: The regimen of ombitasvir, paritaprevir, and ritonavir (OBV/PTV/r) without or with ribavirin has been available in Japan since 2015 and 2016, respectively. Ritonavir is included for its booster effect on paritaprevir by cytochrome P450 3A inhibitor. Paritaprevir, a nonstructural (NS)3/4A protease inhibitor, is mainly eliminated via hepatobiliary excretion. It is carried into the hepatocyte by hepatic transporters including organic anion–transporting polypeptides (OATP)1B1 and OATP1B3, located at the sinusoidal membranes of hepatocytes. These transporters also carry unconjugated bili ...
# [3] = patients with hyperbilirubinemia (N = 7)
# [4] = patients without hyperbilirubinemia (N = 20)
smiles,measurement,setting,value
Cc1cnc(C(=O)N[C@H]2CCCCC/C=C\[C@@H]3C[C@@]3(C(=O)NS(=O)(=O)C3CC3)NC(=O)[C@@H]3C[C@@H](Oc4nc5ccccc5c5ccccc45)CN3C2=O)cn1 [paritaprevir],Log10 Ctrough,[1]; [3],2.768 ± 0.747 ng/ml
same,AUC (AUC0-6 h),[1]; [3],37.224 ± 21.015 µg·h/mL
same,Log10 Ctrough,[1]; [4],2.169 ± 0.484 ng/ml
same,AUC (AUC0-6 h),[1]; [4],31.441 ± 21.727 µg·h/mL
same,patients with elevation in total bilirubin (≥ 2.25 mg/dl),[2],23%
